Assay results: US20110039874A1, “MONOACYLGLYCEROL LIPASE INHIBITORS FOR MODULATION OF CANNABINOID ACTIVITY” (Northeastern University, priority 2007, published 2011)

melting point [°C] | Compound
63 to 64 | O=C(CCCCOc1ccc(O)cc1)C(F)(F)F [Compound 24.2, 1,1,1-Trifluoro-6-[4-(hydroxy)phenoxy]-2-hexanone]
118 to 120 | Cc1nnc(C(=O)CCCCCCOc2ccc(OCc3ccccc3)cc2)o1 [Compound 65.2, 7-(4-Benzyloxy-phenoxy)-1-(5-methyl-1,3,4-oxadiazol-2-yl)-heptan-1-one]
61 to 62 | O=C(CCCCCCOc1ccc(O)cc1)C(F)(F)F [Compound 24.4, 1,1,1-Trifluoro-8-[4-(hydroxy)phenoxy]-2-octanone]
76 to 77 | Oc1cccc(OCCCC(O)(O)C(F)(F)F)c1 (hydrate or solvate) [Compound 24.5, 1,1,1-Trifluoro-2,2-dihydroxy-5-[3-(hydroxy)phenoxy]pentane]
51 to 52 | O=C(CCCCOc1ccccc1O)C(F)(F)F [Compound 24.9, 1,1,1-Trifluoro-6-[2-(hydroxy)phenoxy]-2-hexanone]

Second part, the compound before the results:

Compound | melting point [°C]
O=S(=O)(F)CCCCCc1ccc(OCc2ccccc2)cc1 [Compound 13.4, 5-(4-Benzyloxy-phenyl)-pentanesulfonyl fluoride] | 66 to 68
O=C(CCCOc1ccccc1OCc1ccccc1)C(F)(F)F [Compound 23.8, 1,1,1-Trifluoro-5-[2-(Benzyloxy)phenoxy]-2-pentanone] | 50 to 51
Cc1nnc(C(=O)CCCCCCOc2ccc(O)cc2)o1 [Compound 66, 7-(4-Hydroxy-phenoxy)-1-(5-methyl-1,3,4-oxadiazol-2-yl)-heptan-1-one] | 134 to 135
O=S(=O)(F)CCCCCCCc1ccc(O)cc1 [Compound 14.1, 7-(4-Hydroxy-phenyl)-heptanesulfonyl fluoride] | 47 to 51
O=C(CCCCOc1ccc(OCc2ccccc2)cc1)C(F)(F)F [Compound 23.2, 1,1,1-Trifluoro-6-[4-(Benzyloxy)phenoxy]-2-hexanone] | 95.5 to 96
COS(=O)(=O)CCCCCCCc1ccc(OCc2ccccc2)cc1 [Compound 18, 7-(4-Benzyloxy-phenyl)-heptane-1-sulfonic acid methyl ester] | 57 to 59
O=C(CCCCCOc1ccc(OCc2ccccc2)cc1)C(F)(F)F [Compound 23.3, 1,1,1-Trifluoro-7-[4-(Benzyloxy)phenoxy]-2-heptanone] | 59 to 60
O=C(CCCCOc1ccccc1)C(F)(F)F [Compound 23.12, 1,1,1-Trifluoro-6-phenoxy-2-hexanone] | 50 to 51
O=C(CCCCCOc1ccccc1OCc1ccccc1)C(F)(F)F [Compound 23.10, 1,1,1-Trifluoro-7-[2-(Benzyloxy)phenoxy]-2-heptanone] | 31 to 32
O=C(CCCCCCOc1ccc(OCc2ccccc2)cc1)C(F)(F)F [Compound 23.4, 1,1,1-Trifluoro-8-[4-(Benzyloxy)phenoxy]-2-octanone] | 82 to 83
O=S(=O)(F)CCCCOc1ccccc1 [Compound 17, 4-Phenoxybutylsulfonyl fluoride] | 74 to 76
O=S(=O)(F)CCCCCCCc1ccc(OCc2ccccc2)cc1 [Compound 13.1, 7-(4-Benzyloxy-phenyl)-heptanesulfonyl fluoride] | 35 to 38
O=C(CCCOc1ccc(OCc2ccccc2)cc1)C(F)(F)F [Compound 23.1, 1,1,1-Trifluoro-5-[4-(benzyloxy)phenoxy]-2-pentanone] | 59 to 61
